HPMA copolymer = not defined here
Tests used:
HUVEC = HUVEC cell proliferation assay; format: cell-based, human; settings: for IC50: 48 hours incubation, Paclitaxel-equivalent, read-out: IC50, proliferation of HUVECs
Method: Human Umbilical vain endothelial cells (HUVEC) were plated onto 24-well plate (1×10^4 cells/well) in growth factors reduced media, (EBM-2, Cambrex, USA) supplemented with 5% Fetal Bovine Serum (FBS). Following 24 hours of incubation (37° C.; 5% CO2) medium was replaced with EGM-2 (Cambrex, USA). PC3 cells were plated onto 96 well plate (2×10^3 cells/well) in DMEM supplemented with 5% FBS and incubated for 24 hours (37° C.; 5% CO2). Following 24 hours of incubation medium was replaced with DMEM containing 10% FBS. […] Control cells were grown with or without growth factors. After incubation HUVEC and PC3 were counted by Coulter Counter or by XTT respectively.

[1] = system: human prostate cell line PC3; test: PC3 cell proliferation assay (XTT); format: cell-based
Method: Human Umbilical vain endothelial cells (HUVEC) were plated onto 24-well plate (1×10^4 cells/well) in growth factors reduced media, (EBM-2, Cambrex, USA) supplemented with 5% Fetal Bovine Serum (FBS). Following 24 hours of incubation (37° C.; 5% CO2) medium was replaced with EGM-2 (Cambrex, USA). PC3 cells were plated onto 96 well plate (2×10^3 cells/well) in DMEM supplemented with 5% FBS and incubated for 24 hours (37° C.; 5% CO2). Following 24 hours of incubation medium was replaced with DMEM containing 10% FBS. Cells were challenged with a combination of paclitaxel and ALN, a combination of Paclitaxel-FK and ALN, with each drug alone, and with […] (SEQ ID NO: 12), at serial concentrations for 72 hours. Control cells were grown with or without growth factors. After incubation HUVEC and PC3 were counted by Coulter Counter or by XTT respectively.

[2] = system: DA3 murine mammary cancer cells; test: Antitumor activity in vivo, mCherry-labeled DA3 tumors in the tibia; set-up: species or system Balb/c female mice; settings: 9 days of treatment
Method: 9 Balb/c female mice (n=3 per group) were injected intra tibia with 5×10^5 mCherry-labeled DA3 murine mammary cancer cells. […] (SEQ ID NO: 12) or with vehicle (1:1:8 cremophor EL:ethanol:saline). Therapy was initiated 10 days after tumor cells injection. Tumor progression was monitored by CRI™ Maestro non-invasive intravital imaging system. At termination, tibias were weighed and analyzed. Data is expressed as mean±standard error of the mean (s.e.m.).
Balb/c female mice bearing mCherry-labeled DA3 tumors in the tibia were treated with free and conjugated ALN and PTX (1:1.6, 1.25 mg/kg ALN and 2 mg/kg PTX, every day). Tumor growth rates were measured and monitored by mCherry fluorescence signal using CRI™ Maestro non-invasive intravital imaging system.

Compound: NCCCC(O)(P(=O)(O)O)P(=O)(O)O [ALN, (4-amino-1-hydroxybutylidene)bisphosphonic acid]
- concentration at which proliferation of HUVEC was inhibited (only the highest dose tested) (HUVEC; ALN alone): 6.25 µM
- additional effect on proliferation of HUVEC when combined with Paclitaxel or Paclitaxel-FK (HUVEC; tested concentrations 10 μM-0.001 nM): no additional effect
- effect on the proliferation of PC3 cells ([1]; concentrations tested 0.01 nM-10 μM, alone or combined with PTX or PTX-FK): no effect

Compound: CC(=O)O[C@H]1C(=O)[C@@]2(C)[C@H]([C@H](OC(=O)c3ccccc3)[C@]3(O)C[C@H](OC(=O)[C@H](O)[C@@H](NC(=O)c4ccccc4)c4ccccc4)C(C)=C1C3(C)C)[C@]1(OC(C)=O)CO[C@@H]1C[C@@H]2O [PTX, paclitaxel]
- IC50 ([1]; Homo sapiens, PC-3, 72 hours, PTX alone, read-out: IC50, proliferation of PC3 cells): 1 µM
- antitumor effect (in words) [2]: no therapeutic effect
- antitumor effect (in words) ([2]; listed as Free PTX): no antitumor effect
- antitumor effect (in words) ([2]; listed as free PTX): unaffected

Compound: HPMA copolymer-GGFK-PTX conjugate: cathepsin B-enzymatically cleavable HPMA copolymer conjugate of paclitaxel ({HPMA copolymer}-GGFK-paclitaxel; reading uncertain; also: conjugated to HPMA copolymer, conjugated to paclitaxel (PTX))
- IC50 (HUVEC): ~0.1 µM

Compound: HPMA copolymer-GGGG-PTX conjugate ({HPMA copolymer}-GGGG-paclitaxel; reading uncertain; also: conjugated to HPMA copolymer, conjugated to paclitaxel (PTX))
- concentration inhibiting HUVEC proliferation relative to cathepsin B cleavable HPMA-GGFK-PTX conjugate (HUVEC; 48 hours): 2 logs
- IC50 (HUVEC): ~10 µM

Source: patent US9427474B2, “Conjugates of a polymer, a bisphosphonate and an anti-angiogenesis agent and uses thereof in the treatment and monitoring of bone related diseases” (Ramot at Tel-Aviv University Ltd., priority 2008, dated 2016)
